Where a name gives a salt, the structure may show the parent alone.
Columns and labels:
mitochondrial complex 1 = experiment: Seahorse OCR inhibition of PPV derivatives, normalized to PPV; assay type: cell-based
Procedure: (§1) FIGS. 7A-7D show OCR and cellular toxicity data. […]. Bars represent mean OCR and PDE10 inhibitory activities from at least 5 (OCR) or 3 (PDE) replicates. All experiments were repeated at least twice. […] Values are mean+−SEM.
(§2) Seahorse analysis of the OCR. Oxygen consumption rate (OCR) was measured using Seahorse XF96 Flux Analyzer (Agilent Technologies). The cells were seeded to attach overnight, wells were washed with pre-warmed XF Calibrant (Agilent Technologies) and the replaced with unbuffered Assay Medium (pH 7.4, 5 mM glucose, 1 mM L-glutamine). The plates were incubated at 37° C. in a CO2-free incubator for 2 hours prior to assay. For succinate rescue assay, cells were permeabilized using XF Plasma Membrane Permeabilizer Reagent (XF PMP, Agilent Technologies) according to the manufacturer's instructions. The OCR rate was measured in 1× Mitochondrial Assay Solution (MAS) (70 mM sucrose, 220 mM mannitol, 10 mM KH2PO4, 5 mM MgCl2, 2 mM Hepes, 0.6% (w/v) fatty acid-free BSA and 1 mM EGTA; pH 7.4). After baseline oxygenation was established, 1 μM rotenone or 10 μM PPV was injected at time A, followed by 5 mM succinate at time B. Error bars represent standard deviation. For the washout experiment, EO771 cells were seeded overnight, then treated with 10 μM PPV or 1 μM rotenone 3 hours prior to OCR measurement. Media was replaced 1 and 2 hours before measurement and OCR reported.
Because PPV's effect on mitochondrial function is independent of cAMP levels it was reasoned that there are two activities in PPV, one inhibiting complex 1 and one inhibiting PDE10A that may reside in different parts of the molecule. The structure activity relationship of PPV relative to two assays was assessed: inhibition of cellular OCR by Seahorse, and inhibition of PDE10A by purified enzyme activity in multiwell plate (PDE10A activity assay kit, BPS Bioscience). Because PPV can compete with rotenone as complex 1 inhibitors, it was reasoned that they may be binding the same site and therefore the structures would be similar relative to the mitochondrial binding target. […] Because the top was a planar structure similar to that of rotenone, and they compete with each other for the same binding pocket on complex 1 (FIG. 10) the lower portion of the molecule and how it may resemble rotenone were investigated in more detail. It was established that flexible linkage was preferred for mitochondrial activity and bulky adducts to the lower benzene ring may block it (FIG. 7C). […] These lead compounds were synthesized from commercial precursors and purified on silica gel column. Structures were confirmed by ^1H NMR and found to be >95% pure by HPLC.

PDE10A = target: T1, PDE10A (Homo sapiens, UniProt Q9Y233); experiment: PDE10A enzymatic assay (PDE10A activity assay kit, BPS Bioscience); assay type: biochemical
T1 construct: purchased BPS Bioscience
Procedure: FIGS. 7A-7D show OCR and cellular toxicity data. […] Bars represent mean OCR and PDE10 inhibitory activities from at least 5 (OCR) or 3 (PDE) replicates. All experiments were repeated at least twice. […] Values are mean+−SEM. […]
The structure activity relationship of PPV relative to two assays was assessed: inhibition of cellular OCR by Seahorse, and inhibition of PDE10A by purified enzyme activity in multiwell plate (PDE10A activity assay kit, BPS Bioscience). […] These lead compounds were synthesized from commercial precursors and purified on silica gel column.

A549 cells = experiment: Seahorse OCR in A549 cells (dose response, IC50, washout); assay type: cell-based, Human; details: Homo sapiens; A549 cells by Seahorse, n=5 replicates; read-out: mitochondrial IC50 (OCR IC50)
[1] = Cellular toxicity of PPV derivatives by trypan blue; assay type: cell-based; details: 10 uM, 72 h
Procedure: as §1
Experimental: Cell lines. All cell lines were purchased from the American Type Culture Collection (ATCC) and grown DMEM (Corning) supplemented with 10% FBS (Seradigm) and 1% Penicillin/Streptomycin (Fisher Bioreagents) at 37° C. in 5% CO2. Cells were treated with inhibitors papaverine hydrochloride (Sigma-Aldrich), rotenone (Sigma-Aldrich), piericidin A (Santa Cruz), capsaicin (Sigma-Aldrich), antimycin A (Sigma-Aldrich) and succinic acid disodium salt (Sigma-Aldrich). Cell viability was assessed by trypan blue exclusion.

EO771 tumors [2] = experiment: Pimonidazole staining, hypoxic fraction of EO771 tumors; assay type: in vivo, mice; details: orthotopic EO771, immune-competent mice, 2 mg per kg
Procedure: (§3) P values were calculated against thigh muscle with two-tailed two-sample t test. FIG. 3B-3C show normalized tissue oxygenation in EO771 (b) or A549 (c) tumor-bearing mice after injection of 2 mg/kg PPV or vehicle saline (readings taken every minute, and curve is average of 5 traces). P value was analyzed by linear mixed model with autoregressive correlation structure at T=30-40 minutes. […] Values are mean area covered by pimonidazole-positive cells evaluated from 20 images per animal+−SEM. P value was calculated with two-tailed two-sample t test. […] Curves represent mean tumor volumes+−SEM. P values were calculated against XRT with two-tailed two-sample t test.
(§4) Bar graphs represent the mean area covered by pimonidazole-positive cells evaluated from 20 images per animal+−standard error of the mean. P value was calculated against control with two-tailed two-sample t test. […] Mean volumes+−SEM. P values were calculated against XRT with two-tailed two-sample t test. *P<0.05; **P<0.01; ***P<0.001; ****P<0.0001; n.s., not significant.
Pimonidazole staining. […] […] […] The hypoxic fraction of each tumor was quantified by thresholding signal at 50% of the maximum signal on control sections. Area covered by pimonidazole-positive cells was evaluated from 20 images per animal and averaged. Error bars represent the standard deviation.

EO771 tumors [3] = experiment: Tumor growth delay of EO771 tumors with radiation (XRT); assay type: in vivo, mice; details: heterotopic EO771 flank tumors, nude mice, 2 mg/kg 35 minutes prior to 5 Gy
Procedure: as §3
FIGS. 4A-4G show tumor growth before and after radiosensitization with PPV. FIG. 4A-4B show in vitro radiation survival assessment of A549 cell line treated with 10 μm PPV in normoxia (FIG. 4A) and anoxia (FIG. 4B). […] Values represent averaged colony counts+−standard deviation. […] Values are mean tumor volumes+−SEM. […] Values are mean tumor volumes+−SEM. FIG. 4E-4F show tumor growth delay. When tumors reached 4-fold volume increase, groups receiving no treatment or PPV only (FIG. 4E); and XRT only or PPV followed by XRT (FIG. 4F), tumor weights were compared. Values are mean tumor weights+−SEM (n=8). P values were calculated with two-tailed two-sample t test. FIG. 4G are related to FIG. 4E-4F tumor growth delay. Representative images of orthotopic EO771 tumors harvested on day 11 after treatment with XRT (top) or 2 mg/kg PPV followed by XRT (bottom). *P<0.05; **P<0.01; ***P<0.001; ****P<0.0001; n.s., not significant.
as §4
Tumor Growth kinetics. 2×10^6 EO771 or 5×10^6 A549 cells were injected s.c. into the flanks of 6-week old female immunocompetent C57/B6 (EO771) or immunocompromised nu/nu (A549) mice. Caliper measurements of opposing diameter were used to calculate the tumor volumes. Upon reaching […], the tumors were visualized by cone beam CT and treatment plans calculated using SARRP software. X-rays were delivered with a single beam delivering 5 Gy using the Small Animal Research Radiation Platform (SARRP, Xstrahl). Tumor volumes were measured until the post treatment volume increased 3-fold. Error bars represent standard deviation.
Both models of transplanted tumors that were used for the oxygenation experiments of papaverine's effect on radiation response in vivo were investigated. The murine breast cancer line EO771 that is syngeneic with the BL6 strain of mice was used and transplanted it orthotopically into the mammary fat pad of immune-competent mice. Also used was the human A549 lung adenocarcinoma line that was transplanted into the flank of immune-deficient mice. The breast cancers grew to approximately 150 mm^3 and were then randomized to receive either no treatment, a single dose of either 5 Gy, or papaverine at 2 mg/kg followed 30-40 minutes later by 5 Gy.

Panc1 cells = experiment: Seahorse OCR in Panc1 cell line; assay type: cell-based, Human; details: increasing concentrations (sildenafil citrate 0, 5, 10, 20; 8-Bromo-cAMP 0, 10, 20)
Procedure: FIGS. 7A-7D show OCR and cellular toxicity data. […] Bars represent mean OCR and PDE10 inhibitory activities from at least 5 (OCR) or 3 (PDE) replicates. All experiments were repeated at least twice. […] Values are mean+−SEM.
as §2

T1 sequence (Q9Y233 267-1055): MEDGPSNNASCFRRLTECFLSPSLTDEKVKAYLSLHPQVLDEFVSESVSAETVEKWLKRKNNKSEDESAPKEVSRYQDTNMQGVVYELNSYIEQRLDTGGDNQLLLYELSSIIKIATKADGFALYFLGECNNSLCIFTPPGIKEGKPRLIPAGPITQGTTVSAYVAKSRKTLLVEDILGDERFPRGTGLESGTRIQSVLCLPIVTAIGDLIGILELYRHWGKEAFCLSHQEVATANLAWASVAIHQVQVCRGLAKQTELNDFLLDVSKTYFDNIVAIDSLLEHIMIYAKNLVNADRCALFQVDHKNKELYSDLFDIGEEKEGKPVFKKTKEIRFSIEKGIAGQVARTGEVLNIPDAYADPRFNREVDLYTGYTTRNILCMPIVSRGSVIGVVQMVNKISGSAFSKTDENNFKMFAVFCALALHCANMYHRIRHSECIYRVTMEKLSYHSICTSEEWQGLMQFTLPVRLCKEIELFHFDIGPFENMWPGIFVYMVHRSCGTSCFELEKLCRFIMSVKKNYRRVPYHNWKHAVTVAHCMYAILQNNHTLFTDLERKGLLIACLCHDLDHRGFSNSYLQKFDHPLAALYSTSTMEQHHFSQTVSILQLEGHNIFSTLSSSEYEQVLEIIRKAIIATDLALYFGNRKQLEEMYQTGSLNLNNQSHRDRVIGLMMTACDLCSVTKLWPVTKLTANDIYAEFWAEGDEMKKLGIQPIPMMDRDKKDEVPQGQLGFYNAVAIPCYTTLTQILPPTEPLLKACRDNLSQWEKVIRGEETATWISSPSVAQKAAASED

SMILES	Inhibitory activity OCR % of PPV (mitochondrial complex 1; Seahorse, OCR inhibition at 10 μM concentration, normalized to PPV)	complex 1 activity compared to PPV (mitochondrial complex 1; compared to PPV) [%]	IC20 (PDE10A; PDE10A2 enzymatic assay, n=3 replicates, read-out: PDE IC20 (PDE10A IC20)) [µM]	Inhibitory activity PDE10A % of PPV (PDE10A; PDE10A inhibition at 1 μM, normalized to PPV)	PDE10 activity compared to PPV (PDE10A; compared to PPV) [%]	IC50 (A549 cells) [µM]	cellular toxicity in vitro [1]	tumor hypoxia by pimonidazole staining (EO771 tumors [2])	growth delay compared to radiation alone (EO771 tumors [3])	effect on OCR (Panc1 cells)
COc1cc2ccnc(Cc3cc(C)cc(C)c3)c2cc1OC [SMV-23]	20.37 % of PPV	20	0.5	121.49 % of PPV	125	94	Neither of these compounds shows cellular toxicity	no effect on hypoxia	no increase in growth delay	–
CCCc1nn(C)c2c(=O)[nH]c(-c3cc(S(=O)(=O)N4CCN(C)CC4)ccc3OCC)nc12 [sildenafil citrate]	–	–	–	–	–	–	–	–	–	no effect

Reference: US20210163453A1, “DERIVATIVES OF PAPAVERINE THAT ARE EFFECTIVE HYPOXIC TUMOR RADIOSENSITIZERS” (Ohio State Innovation Foundation, priority 2018, published 2021)
